Measurements taken from article PMC6161179, “Looking for Novel Capsid Protein Multimerization Inhibitors of Feline Immunodeficiency Virus” (Pharmaceuticals, 2018).
Like-named read-outs stand apart in the source and are kept apart here.

Assays:
[1] = system: HIV-1; design: method as in PMID 12662926; conditions: at 100 µM; cited from earlier work
[2] = system: HIV-1 capsid protein; design: method as in PMID 12662926; conditions: read-out: EC50 (affinity); cited from earlier work
[3] = molecular target: T1, FIV CA (p24) (Feline immunodeficiency virus, UniProt P16087); experiment: Microscale thermophoresis (MST) binding to CA
T1 construct: The FIV CA protein was expressed and purified mostly as described; made in house; host or cells: Escherichia coli BL21(DE3) pLysS
T1 sequence (P16087 136-357): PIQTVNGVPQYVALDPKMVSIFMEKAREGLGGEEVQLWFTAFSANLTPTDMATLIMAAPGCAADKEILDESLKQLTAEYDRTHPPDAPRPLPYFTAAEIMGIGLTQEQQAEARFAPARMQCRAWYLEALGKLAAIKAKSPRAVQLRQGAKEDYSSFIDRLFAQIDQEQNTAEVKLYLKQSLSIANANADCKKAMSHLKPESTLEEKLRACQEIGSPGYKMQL
Procedure: The major disadvantage of this method is the interference of the compound with the measurement, either by autofluorescence or quenching.
We explored the binding affinity at two different times (10 and 60 min) to enhance the poetical interactions.
MTS experiments were performed according to the NanoTemper technologies protocol in a Monolith NT.115 (green/blue) instrument (NanoTemper Technologies, München, Germany). With this technique, the diffusion behavior of a labeled protein is measured when an infrared light excites the movement of the protein in capillaries. This behavior is the combination of two effects: the fast, local environment dependent responses of the fluorophore to the temperature jump and the slower diffusive thermophoresis fluorescence changes. It will be modified when the protein is complexed with increasing amounts of unlabeled partners, leading to titration curves that can be fit for Kd estimation. In practice, CA was labeled with the Monolith His-Tag Labeling Kit RED-tris-NTA (NanoTemper Technologies, München, Germany), as described by the manufacturer. The experiments were performed using 20% and 40% MST power and between 20–80% LED power at 24 °C. The MST traces were recorded using the standard parameters: 5 s MST power off, 30 s MST power on, and 5 s MST power off. The compounds were used at high concentrations (around 5 mM) in the bindings check assay with DMSO at 5% v/v. If the binding check was positive, then the affinity determination was performed with the same experimental settings, with serial 2× dilutions of the compound of interest.

[4] = system: J774.1 murine macrophage cells; experiment: MTT cytotoxicity assay in J774.1 murine macrophages; assay type: cell-based; conditions: compound at 100µM, 48 h
Procedure: (§1) Vero cell lines (ATCC, Rockville, MD, USA) were cultivated in Dulbecco’s modified Eagles medium (DMEM) with 10% FCS in a humid atmosphere of 5% CO2 at 37 °C. Vero cells were seeded in 96-well plates at an initial density of 5 × 10^3 cells per well. J774.1 murine macrophage cells (ATCC, Manassas, VA, USA) were grown in DMEM culture milieu containing 4 mM L-glutamine and supplemented with 10% FCS. The cells were seeded in a 96-well plate (5 × 10^4 cells in 200 µL culture medium) and incubated at 37 °C in a 5% CO2 atmosphere for 48 h, to allow cell adhesion prior to drug testing. Both cell lines were exposed for 48 h (at 37 °C and 5% CO2) to the compounds (100 µM) or the solvent (0.4% DMSO) for the control, and additional controls (cells in medium) were used in each test. The cytotoxicity of the compounds was evaluated by MTT reduction assays. To proceed with the MTT assay, 20 μL of 3-(4,5-dimethylthiazol-2-yl)-2,5-diphenyl-2H-tetrazolium bromide (MTT) 5 mg/mL solution dissolved in 1× PBS was added to the wells and incubated for 4 h at 37 °C in a 5% CO2 controlled atmosphere. Next, the medium was aspirated and 100 μL of DMSO was added to each well and incubated at room temperature in the dark for 15 min with moderate orbital shaking. Optical density (OD) was read in a plate spectrophotometer (Thermo Scientific Varioskan® Flash Multimode, Waltham, MA, USA) at 570 and 690 nm wavelengths. Each experiment was performed in triplicate. For the statistical analyses, the GraphPad Prism 6 was used. Dunnett’s multiple comparison tests and Student’s T-test were used when we compared the averages of each condition with the control.

[5] = molecular target: T1, FIV CA (p24); experiment: In vitro CA assembly assay (spectrophotometry / light scattering); assay type: biochemical; conditions: re-validated by light scattering and spectrophotometry; compounds at 25 or 50 µM
Procedure: Indeed, our initial assay used light scattering and could only monitor the assembly of one sample per experiment on 40 min kinetics. […] The use of the spectrometric technique to follow capsid assembly has been described for HIV [24] and is based on the detection of capsid assembly via the measurement of the increase of medium turbidity. The use of this technique to monitor FIV p24 assembly allowed us to use 384-well plates, reducing the volume of protein to 15 µL per sample and allowing a testing of 10 compounds, in duplicate, in 40 min. Moreover, in this format, the protein concentration (5 mg/mL) was enough to start the assembly without needing the high concentration of salt used in the HIV in vitro assembly assay. High salt concentration could cause a problem by interfering with the solvation and solubility of some molecules and the loss of their interaction with the target. The only limitation of this method using low volumes was the risk of introducing air bubbles in the reaction, which interfere negatively in the absorbance measurement. However, this issue was solved by a careful manipulation in the filling process of the plates.
With this spectrometric assembly assay, we were able to discriminate two different behaviors for compounds interfering with the assembly of FIV CA: the enhancement of the assembly or its inhibition. The enhancement of assembly is associated with an increase of the diameter of the assembled objects and could result in a disordered or altered capsid with a loss of function. Inhibition is the classical effect which would impair the formation of the capsid (Figure 3).
High nitrogen content heretocycles were not a good source of bioactive molecules. Some compounds with structural similarities with Bevirimat were also active, like some steroid compounds clustered in diverse families. […] We could not find active molecules in four families (i.e., selenium containing compounds, flavones, triazines, and indazoles).
The CA assembly assay was performed in a final volume of 50 μL in 384-well plates, with a final concentration of 5 mg/mL of purified recombinant FIV […] in 50 mM NaH2PO4 and 1 M NaCl, pH 7.4. Absorbance is measured at 340 nm every 30 s in a multiplate reader Varioskan^TM Flash Multimode Reader (Thermo Scientific^TM, Waltham, MA, USA) at 38 °C for 30 min. The compounds were tested at a fixed initial dose of 25 or 50 μM (at 0.5% DMSO v/v) by adding 1 µL of the concentrated ligand were added to the well before starting the measurement. The controls were CA at 5 mg/mL in only 0.5% DMSO v/v and CA without DMSO. The criteria to select active compounds were the observation of at least 50% of assembly inhibition at these doses, based on the reduction of the OD value at 340 nm at the plateau value compared to the controls.

[6] = system: five different enzymes from pathogen parasites; design: method as in PMID 20889239, PMID 28481276; conditions: at 100 µM; cited from earlier work
[7] = system: Vero cell lines; experiment: MTT cytotoxicity assay in Vero cells; assay type: cell-based; conditions: compound at 100µM, 48 h
Procedure: as §1

[8] = system: murine macrophages; design: method as in PMID 28481276; conditions: read-out: cytotoxicity IC50; cited from earlier work
[9] = system: murine acute infection model of the Chagas disease; design: method as in PMID 26492824; conditions: 100 mg/kg body for 15 days; cited from earlier work
[10] = 1 h (60 min), read-out: 1h EC50

Cc1ccc(NC(=O)NCCSCc2ccc(CN(C)C)o2)cc1Cl [CAP-1]
activity in the in vitro infection assay [1]: active
EC50 [2]: 60 µM

O=C1C(=Cc2ccc([N+](=O)[O-])cc2)C(=O)N(CCc2ccccc2)S(=O)(=O)N1CCc1ccccc1 [compound 110]
EC50 ([3]; 10 min, read-out: 10 min EC50): 1100 µM
EC50 [3, 10]: 789 µM

Nc1ccc(S(=O)(=O)c2ccc(Nc3c([N+](=O)[O-])c(Nc4ccc(S(=O)(=O)c5ccc(N)cc5)cc4)c4no[n+]([O-])c4c3[N+](=O)[O-])cc2)cc1 [compound 703]
EC50 ([3]; 10 min, read-out: 10 min EC50): 320 µM
EC50 [3, 10]: 720 µM

C=CCn1c(C(=O)O)cs\c1=N/N=C/C=C/c1ccc(C)o1 [compound 789]
EC50 ([3]; 10 min, read-out: 10 min EC50): 640 µM
EC50 [3, 10]: 655 µM

CC(/C=N/N1CCSCC1)=C\c1ccco1 [compound 878]
Murine macrophages (grown %) [4]: 98±8%
EC50 ([3]; 10 min, read-out: 10 min EC50): 119 µM
EC50 ([3]; 1 h (60 min), Figure 5 panel A, read-out: 1h EC50): 166 µM
EC50 [3, 10]: 166 µM
inhibition of the assembly [5]: inhibition of the assembly
inhibitory effects [6]: did not display inhibitory effects
VERO (grown %) [7]: 100±8%
IC50 [8]: > 100 µM

C=CCn1c(C)cs\c1=N/N=C/C=C/c1cccs1 [compound 1128]
EC50 ([3]; 10 min, read-out: 10 min EC50): 322 µM
EC50 [3, 10]: 484 µM

O=C(O)c1cs/c(=N/N=C/C=C/C=C/c2cccs2)n1-c1ccccc1 [compound 1136]
Murine macrophages (grown %) [4]: 95±7%
EC50 ([3]; 10 min, read-out: 10 min EC50): 212 µM
EC50 [3, 10]: 83 µM
inhibition of the assembly [5]: inhibition of the assembly
inhibitory effects [6]: did not display inhibitory effects
VERO (grown %) [7]: 100±9%

C=CCN1C(=O)CS\C1=N/N=C/C=C/c1cccs1 [compound 1138]
EC50 ([3]; 10 min, read-out: 10 min EC50): 242 µM
EC50 [3, 10]: 180 µM

O=C1/C(=C/C=C/c2ccccc2)CC/C1=C\C=C\c1ccccc1 [compound 1246]
Murine macrophages (grown %) [4]: 79±9%
EC50 ([3]; 10 min, read-out: 10 min EC50): 390 µM
EC50 [3, 10]: 239 µM
inhibition of the assembly [5]: inhibition of the assembly
inhibitory effects [6]: did not display inhibitory effects
VERO (grown %) [7]: 89±5%
toxic effect [9]: without toxic effect
IC50 [8]: > 100 µM

C=CCn1c(C(=O)O)cs/c1=N\N=C\c1ccc(/C=N/N=c2\scc(C(=O)O)n2CC=C)cc1 [compound 1310]
Murine macrophages (grown %) [4]: 98±7%
EC50 ([3]; 10 min, read-out: 10 min EC50): 655 µM
EC50 [3, 10]: 670 µM
inhibition of the assembly [5]: inhibition of the assembly
inhibitory effects [6]: did not display inhibitory effects
VERO (grown %) [7]: 95±7%

C=CCNC(=S)N/N=C/c1ccc2c(c1)c1cc(/C=N/NC(=S)NCC=C)ccc1n2CC(CC)CCCC (centres unmarked) [compound 1368]
EC50 [3, 10]: 35 µM
